The source made the active and inactive calls. No cut-off for these calls is given here.

The first data set has as its system Lactuca sativa. Kind of data set: Phytotoxicity against Lactuca sativa var. Carrascoy (lettuce) assessed as inhibition of radicle length at 50 ug/cm2 after 24 to 144 hr. In kind it is functional.
Conditions: not given
Broadly, the inhibition is the share of the control response that was lost under treatment. In the case of `C/C=C1/C[C@@]2(CO)O[C@@]2(C)C(=O)OCC2=CCN3CC[C@@H](OC1=O)[C@@H]23` [ERUCIFOLINE], the inhibition at 50 µg/cm2 is less than 50%.

Turning to `C/C=C1\C[C@@H](C)[C@@](C)(O)C(=O)OCC2=CCN3CC[C@@H](OC1=O)[C@@H]23` [INTEGERRIMINE], the inhibition at 50 µg/cm2 is less than 50%.

As for `C[C@H]1C(=O)O[C@@H]2CCN3CC=C(COC(=O)[C@](C)(O)[C@]1(C)O)[C@H]23` [MONOCROTALINE], the inhibition at 50 µg/cm2 is less than 50%.

For `C/C=C1/C[C@@H](C)[C@@](C)(O)C(=O)OCC2=CCN3CC[C@@H](OC1=O)[C@@H]23` [SENECIONINE], the inhibition at 50 µg/cm2 is less than 50%.

The test system of a further data set is Rhopalosiphum padi. Kind of data set: Antifeedant activity against Rhopalosiphum padi adults fed on compound treated Hordeum vulgare annuum leaves assessed as feeding level at 50 ug/cm2 (reference value: 47 to 64%). In kind it is functional.
Conditions: not given
As to `C/C=C1/C[C@@]2(CO)O[C@@]2(C)C(=O)OCC2=CCN3CC[C@@H](OC1=O)[C@@H]23` [ERUCIFOLINE], the Activity came to 43%.

`C/C=C1\C[C@@H](C)[C@@](C)(O)C(=O)OCC2=CCN3CC[C@@H](OC1=O)[C@@H]23` [INTEGERRIMINE]: the Activity was 43%.

Regarding `C[C@H]1C(=O)O[C@@H]2CCN3CC=C(COC(=O)[C@](C)(O)[C@]1(C)O)[C@H]23` [MONOCROTALINE], the Activity worked out at 37%.

Consider `C/C=C1/C[C@@H](C)[C@@](C)(O)C(=O)OCC2=CCN3CC[C@@H](OC1=O)[C@@H]23` [SENECIONINE], for which the Activity is on record as 40%.

For the next data set, the system named is Spodoptera littoralis. In words: Antifeedant activity against Spodoptera littoralis L6 larvae assessed as biomass gain orally dosed with 40 ug after 72 hr relative to untreated control. In kind it is functional.
Conditions: not given
On to `C/C=C1/C[C@@]2(CO)O[C@@]2(C)C(=O)OCC2=CCN3CC[C@@H](OC1=O)[C@@H]23` [ERUCIFOLINE], for which the Activity is reported as 106%.

With `C/C=C1\C[C@@H](C)[C@@](C)(O)C(=O)OCC2=CCN3CC[C@@H](OC1=O)[C@@H]23` [INTEGERRIMINE], the Activity was determined as 89%.

As to `C[C@H]1C(=O)O[C@@H]2CCN3CC=C(COC(=O)[C@](C)(O)[C@]1(C)O)[C@H]23` [MONOCROTALINE], the Activity came to 47%.

In the case of `C/C=C1/C[C@@H](C)[C@@](C)(O)C(=O)OCC2=CCN3CC[C@@H](OC1=O)[C@@H]23` [SENECIONINE], the Activity stood at 84%.

The subject of another data set is Lactuca sativa. Kind of data set: Phytotoxicity against Lactuca sativa var. Carrascoy (lettuce) assessed as inhibition of seed germination at 50 ug/cm2 after 96 hr.
Conditions: not given
In kind it is functional, organism-based.
With `C[C@H]1C(=O)O[C@@H]2CCN3CC=C(COC(=O)[C@](C)(O)[C@]1(C)O)[C@H]23` [MONOCROTALINE], the inhibition result is “Active”.

The test system of a further data set is Spodoptera littoralis. In words: Antifeedant activity against Spodoptera littoralis L6 larvae assessed as food consumption level orally dosed with 40 ug after 72 hr relative to untreated control.
Conditions: not given
In kind it is functional.
With `C/C=C1/C[C@@]2(CO)O[C@@]2(C)C(=O)OCC2=CCN3CC[C@@H](OC1=O)[C@@H]23` [ERUCIFOLINE], the Activity turned out to be 102%.

On to `C/C=C1\C[C@@H](C)[C@@](C)(O)C(=O)OCC2=CCN3CC[C@@H](OC1=O)[C@@H]23` [INTEGERRIMINE], for which the Activity was found to be 88%.

Regarding `C[C@H]1C(=O)O[C@@H]2CCN3CC=C(COC(=O)[C@](C)(O)[C@]1(C)O)[C@H]23` [MONOCROTALINE], the Activity worked out at 98%.

Consider `C/C=C1/C[C@@H](C)[C@@](C)(O)C(=O)OCC2=CCN3CC[C@@H](OC1=O)[C@@H]23` [SENECIONINE], for which the Activity amounted to 84%.

Another data set relates to Myzus persicae. Kind of data set: Antifeedant activity against Myzus persicae (green peach aphid) adults fed on compound treated […] annuum leaves assessed as feeding level at 50 ug/cm2 (reference value: 43 to 70%). In kind it is functional.
Conditions: not given
Regarding `C/C=C1/C[C@@]2(CO)O[C@@]2(C)C(=O)OCC2=CCN3CC[C@@H](OC1=O)[C@@H]23` [ERUCIFOLINE], the Activity is 31%.

Consider `C/C=C1\C[C@@H](C)[C@@](C)(O)C(=O)OCC2=CCN3CC[C@@H](OC1=O)[C@@H]23` [INTEGERRIMINE], for which the Activity amounted to 57%.

With `C[C@H]1C(=O)O[C@@H]2CCN3CC=C(COC(=O)[C@](C)(O)[C@]1(C)O)[C@H]23` [MONOCROTALINE], the Activity turned out to be 49%.

As to `C/C=C1/C[C@@H](C)[C@@](C)(O)C(=O)OCC2=CCN3CC[C@@H](OC1=O)[C@@H]23` [SENECIONINE], the Activity is given as 40%.

Tested on in a further data set: not listed separately
Kind of data set: Toxicity against Cricetulus griseus CHO (Chinese hamster ovary) cell by MTT assay. In kind it is cell-based. Conditions: CHO cells. (Tetrazolium assays rely on reduction of a dye to a coloured formazan, in cell work by metabolically active cells.)
`C/C=C1\C[C@@H](C)[C@@](C)(O)C(=O)OCC2=CCN3CC[C@@H](OC1=O)[C@@H]23` [INTEGERRIMINE] had an EC50 of more than 100 µg/mL.

`C[C@H]1C(=O)O[C@@H]2CCN3CC=C(COC(=O)[C@](C)(O)[C@]1(C)O)[C@H]23` [MONOCROTALINE] yielded an EC50 of more than 100 µg/mL.

In the case of `C/C=C1/C[C@@H](C)[C@@](C)(O)C(=O)OCC2=CCN3CC[C@@H](OC1=O)[C@@H]23` [SENECIONINE], the EC50 is more than 100 µg/mL.

The subject of a further data set is Lactuca sativa. In words: Phytotoxicity against Lactuca sativa var. Carrascoy (lettuce) assessed as inhibition of seed germination at 50 ug/cm2 after 24 hr. In kind it is functional, organism-based.
Conditions: not given
For the molecule `C/C=C1/C[C@@]2(CO)O[C@@]2(C)C(=O)OCC2=CCN3CC[C@@H](OC1=O)[C@@H]23` [ERUCIFOLINE], the inhibition result is “Active”.

Consider `C[C@H]1C(=O)O[C@@H]2CCN3CC=C(COC(=O)[C@](C)(O)[C@]1(C)O)[C@H]23` [MONOCROTALINE], for which the inhibition entry is “Active”.

Another data set relates to Lactuca sativa. Kind of data set: Phytotoxicity against Lactuca sativa var. Carrascoy (lettuce) assessed as inhibition of seed germination at 50 ug/cm2 after 48 hr. In kind it is functional, organism-based.
Conditions: not given
As for `C[C@H]1C(=O)O[C@@H]2CCN3CC=C(COC(=O)[C@](C)(O)[C@]1(C)O)[C@H]23` [MONOCROTALINE], the inhibition result was “Active”.

A further data set deals with Leptinotarsa decemlineata. Kind of data set: Antifeedant activity against Leptinotarsa decemlineata adults fed on compound treated Capsicum annuum leaves assessed as inhibition of feeding. The format is functional, organism-based.
Conditions: not given
As for `C/C=C1/C[C@@]2(CO)O[C@@]2(C)C(=O)OCC2=CCN3CC[C@@H](OC1=O)[C@@H]23` [ERUCIFOLINE], the EC50 is more than 50 microg/cm2.

In the case of `C/C=C1\C[C@@H](C)[C@@](C)(O)C(=O)OCC2=CCN3CC[C@@H](OC1=O)[C@@H]23` [INTEGERRIMINE], the EC50 is 3.4 microg/cm2.

As for `C[C@H]1C(=O)O[C@@H]2CCN3CC=C(COC(=O)[C@](C)(O)[C@]1(C)O)[C@H]23` [MONOCROTALINE], the EC50 is recorded as more than 50 microg/cm2.

As for `C/C=C1/C[C@@H](C)[C@@](C)(O)C(=O)OCC2=CCN3CC[C@@H](OC1=O)[C@@H]23` [SENECIONINE], the EC50 is reported as 1.3 microg/cm2.

The subject of the next data set is Lactuca sativa. Kind of data set: Phytotoxicity against Lactuca sativa var. Carrascoy (lettuce) assessed as inhibition of seed germination at 50 ug/cm2 up to 144 hr. In kind it is functional, organism-based.
Conditions: not given
Turning to `C[C@H]1C(=O)O[C@@H]2CCN3CC=C(COC(=O)[C@](C)(O)[C@]1(C)O)[C@H]23` [MONOCROTALINE], the inhibition entry was “Active”.

Tested on in a further data set: not listed separately
In words: Toxicity against Spodoptera frugiperda (fall armyworm) Sf9 cells by MTT assay. In kind it is cell-based.
Conditions: not given
Regarding `C/C=C1\C[C@@H](C)[C@@](C)(O)C(=O)OCC2=CCN3CC[C@@H](OC1=O)[C@@H]23` [INTEGERRIMINE], the EC50 is more than 100 µg/mL.

`C[C@H]1C(=O)O[C@@H]2CCN3CC=C(COC(=O)[C@](C)(O)[C@]1(C)O)[C@H]23` [MONOCROTALINE] returned an EC50 of more than 100 µg/mL.

Turning to `C/C=C1/C[C@@H](C)[C@@](C)(O)C(=O)OCC2=CCN3CC[C@@H](OC1=O)[C@@H]23` [SENECIONINE], the EC50 is more than 100 µg/mL.

The test system of another data set is Spodoptera littoralis. In words: Antifeedant activity against Spodoptera littoralis sixth-instar larvae fed on compound treated Solanum tuberosum leaves assessed as inhibition of feeding. In kind it is functional, organism-based.
Conditions: not given
Regarding `C/C=C1/C[C@@]2(CO)O[C@@]2(C)C(=O)OCC2=CCN3CC[C@@H](OC1=O)[C@@H]23` [ERUCIFOLINE], the EC50 is on record as more than 50 microg/cm2.

Consider `C/C=C1\C[C@@H](C)[C@@](C)(O)C(=O)OCC2=CCN3CC[C@@H](OC1=O)[C@@H]23` [INTEGERRIMINE], for which the EC50 is recorded as more than 100 microg/cm2.

Consider `C[C@H]1C(=O)O[C@@H]2CCN3CC=C(COC(=O)[C@](C)(O)[C@]1(C)O)[C@H]23` [MONOCROTALINE], for which the EC50 was more than 50 microg/cm2.

With `C/C=C1/C[C@@H](C)[C@@](C)(O)C(=O)OCC2=CCN3CC[C@@H](OC1=O)[C@@H]23` [SENECIONINE], the EC50 was more than 50 microg/cm2.

In a further data set the test system is Lactuca sativa. Kind of data set: Phytotoxicity against Lactuca sativa var. Carrascoy (lettuce) assessed as inhibition of seed germination at 50 ug/cm2 after 72 hr. The format is functional, organism-based.
Conditions: not given
For `C[C@H]1C(=O)O[C@@H]2CCN3CC=C(COC(=O)[C@](C)(O)[C@]1(C)O)[C@H]23` [MONOCROTALINE], the inhibition entry is “Active”.

For the origin of these results see ChEMBL document CHEMBL3044600 (Biochem Syst Ecol, 2008).
